Activity calls are given as the source filed them. No rule for the calls is given here. Some results are limits rather than exact numbers.

This experiment has as its target Ubiquitin carboxyl-terminal hydrolase 8 (Homo sapiens) (UniProt P40818). The experiment is described as follows: Ubiquitin-specific protease 8 inhibitors, concentration-effect, biochemical, validation of initial actives (AID 1645862).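 Also: potency reflects inhibition of USP8 cleavage of a ubiquitin rhodamine substrate.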 The settings on record: recombinant USP8 deubiquitinase activity assay.

Ubiquitin carboxyl-terminal hydrolase 8 (Homo sapiens), sequence (P40818 whole entry, looked up): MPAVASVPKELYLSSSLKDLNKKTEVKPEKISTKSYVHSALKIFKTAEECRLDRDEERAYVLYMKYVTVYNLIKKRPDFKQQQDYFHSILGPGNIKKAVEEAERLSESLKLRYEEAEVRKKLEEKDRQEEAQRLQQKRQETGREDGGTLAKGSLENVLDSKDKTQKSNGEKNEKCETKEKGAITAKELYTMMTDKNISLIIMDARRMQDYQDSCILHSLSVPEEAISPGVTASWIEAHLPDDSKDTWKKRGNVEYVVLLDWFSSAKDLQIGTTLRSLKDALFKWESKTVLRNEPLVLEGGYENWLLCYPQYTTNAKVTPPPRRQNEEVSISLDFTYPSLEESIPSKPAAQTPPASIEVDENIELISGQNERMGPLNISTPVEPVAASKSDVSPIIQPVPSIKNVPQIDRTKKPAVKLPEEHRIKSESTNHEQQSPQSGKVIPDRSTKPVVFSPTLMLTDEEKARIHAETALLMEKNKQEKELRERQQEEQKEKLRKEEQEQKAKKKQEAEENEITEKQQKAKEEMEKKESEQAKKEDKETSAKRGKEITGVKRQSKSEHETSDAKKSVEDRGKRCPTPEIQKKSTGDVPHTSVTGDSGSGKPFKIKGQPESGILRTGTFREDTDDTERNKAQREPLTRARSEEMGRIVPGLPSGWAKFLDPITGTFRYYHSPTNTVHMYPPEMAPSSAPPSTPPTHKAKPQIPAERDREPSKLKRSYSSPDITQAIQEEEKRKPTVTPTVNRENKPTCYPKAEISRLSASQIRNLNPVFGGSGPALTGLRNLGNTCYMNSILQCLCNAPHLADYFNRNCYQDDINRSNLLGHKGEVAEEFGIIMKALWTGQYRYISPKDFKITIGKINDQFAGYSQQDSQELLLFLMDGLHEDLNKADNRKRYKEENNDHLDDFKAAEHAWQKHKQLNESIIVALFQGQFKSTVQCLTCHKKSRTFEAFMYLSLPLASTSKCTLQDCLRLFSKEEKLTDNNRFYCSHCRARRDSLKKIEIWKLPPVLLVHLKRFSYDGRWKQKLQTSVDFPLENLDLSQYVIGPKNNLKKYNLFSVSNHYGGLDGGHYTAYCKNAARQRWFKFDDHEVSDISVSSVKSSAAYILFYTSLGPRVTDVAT

One may read the IC50 as the concentration that inhibits the measured activity by half. Turning to `COc1c(C)c(OC(=O)c2c(C)c(C)c(OC(=O)c3c(C)c(C)c(O)c(C)c3O)c(C)c2OC)c(C)c(C)c1C(=O)O`, the IC50 is > 40 µM (inactive). On to `O=C(Cn1c(=O)c2cccn2c2ccccc21)NCc1ccc(F)cc1`, for which the IC50 was > 40 µM (inactive).

As for `O=C(Nc1cccc2ccccc12)N1CCC(c2nc3c(nnn3Cc3ccc(F)cc3)c(=O)[nH]2)CC1`, the IC50 is > 40 µM (inactive). The value for `Cc1ncc(-c2ccc3c(c2)OCO3)c(-c2nccs2)n1` was > 40 µM (inactive); that for `COc1ccc2c(c1)CCc1c-2n[nH]c1C(=O)Nc1cc(C)on1` was > 40 µM (inactive); that for `Cc1cccc(NC(=O)Cn2c(=O)n(-c3cc(C)cc(C)c3)c(=O)c3sccc32)c1` was > 40 µM (inactive). The result for `COc1cccc(NC(=O)c2oc3ccccc3c2NC(=O)COc2cccc(OC)c2)c1` reads > 40 µM (inactive). The result for `Cc1ccc(NC(=O)Nc2nnc(CC(=O)NCc3ccccc3)s2)cc1F` reads > 40 µM (inactive); that for `Cc1ccc(NC(=O)Cn2cc(C(=O)c3ccccc3)c(=O)c3cc(C)ccc32)cc1`, 39.6 µM; that for `CC1OC2CC(O)C1(O)C1=C2C(O)=C(C(N)=O)C(=N)C1=O` (stereo not drawn), 1.56 µM. For `O=S1(=O)CCN(CC2CCCO2)c2c(Oc3ccccc3)nc(F)c(Cl)c21` (stereo not drawn), the IC50 was > 40 µM (inactive).

On to `COc1ccc(CC(=O)Nc2c(NCc3ccccc3)c3ccccc3oc2=O)cc1`, for which the IC50 is 38.2 µM. Take `CC(NC(=O)c1ccccc1)c1nc2ccccc2n1CC(=O)Nc1ccc2c(c1)OCO2` (stereo not drawn): the IC50 is > 40 µM (inactive).

`COc1cc2cc3c(c(O)c2c(O)c1-c1c(OC)cc2cc4c(c(O)c2c1O)C(=O)OC1CC(C)OC41)C(=O)OC1CC(C)OC31` (stereo not drawn): the IC50 was 0.972 µM. The value for `O=C(CCCCn1c(=O)c2ccccc2n(CC(=O)Nc2ccc3c(c2)OCCO3)c1=O)NCc1ccco1` was > 40 µM (inactive); that for `O=C1C=C(O)c2c(O)cccc2C1=O` was 19 µM; that for `Cc1nc(-c2ccc(Cl)cc2)oc1C(=O)Nc1ccc(Cl)cc1` was > 40 µM (inactive). The result for `c1ccc(CNc2ccc(-c3ccccc3)nn2)cc1` reads > 40 µM (inactive); that for `Cc1cc(C(=O)CSc2nc3ccccc3[nH]2)c(C)n1Cc1ccco1`, > 40 µM (inactive); that for `O=C(Cn1c(=O)[nH]c2c(-c3ccccc3)c[nH]c2c1=O)NCc1ccccc1Cl`, > 40 µM (inactive). As to `O=C(Nc1ccccc1F)c1nc(-c2cn(-c3ccc(F)cc3)nn2)no1`, the half-maximal inhibitory concentration (IC50) is 22.4 µM. The value for `O=C(c1[nH]nc2c1COc1ccccc1-2)N1CCN(c2ccccn2)CC1` was > 40 µM (inactive); that for `CCc1cccc(C)c1NC(=O)Cn1c(C(C)NC(=O)c2ccc(C)cc2)nc2ccccc21` (stereo not drawn) was > 40 µM (inactive). The value for `Cc1ccc(Nc2nc(NCC(=O)Nc3cc(C)ccc3C)nc(Nc3ccc(C)cc3)n2)cc1` was > 40 µM (inactive).

Regarding `CC(C)(C)c1ccc(C2CC(=O)C3=C(C2)Nc2ccccc2N(C(=O)CCC(=O)O)C3c2cccc([N+](=O)[O-])c2)cc1` (stereo not drawn), the IC50 was > 40 µM (inactive).

On to `CCc1cccc(C)c1NC(=O)Cn1nc2ccc(C(=O)NCc3ccccc3)cn2c1=O`, for which the IC50 is > 40 µM (inactive). The value for `N#Cc1c(-c2ccc(Cl)cc2)cc(-c2cccc(Br)c2)[nH]c1=O` was 25.5 µM; that for `COc1cc2c(cc1OC)-c1cc(Nc3ccc(Br)cc3)nc(=O)n1CC2` was > 40 µM (inactive).

These data come from PubChem BioAssay AID1645862 (Buhrlage Lab, Dana-Farber Cancer Institute and Novartis …, 2021).
